Reference: patent US20210163459A1, “PESTICIDALLY ACTIVE AZETIDINE SULFONES AMIDE ISOXAZOLINE DERIVATIVES” (SYNGENTA CROP PROTECTION AG, priority 2018, published 2021)

Tests used:
[1] = tested on: Spodoptera littoralis; experiment: Spodoptera littoralis (Egyptian Cotton Leaf Worm) test on sprayed cotton leaf discs; assay type: in vivo; conditions: foliar, 72 h, application rate of 200 ppm, L1 larvae, assessed 3 days after infestation in comparison to untreated samples, read-out: control (mortality, anti-feeding effect, growth inhibition)
Protocol: Spodoptera littoralis (Egyptian Cotton Leaf Worm)
Cotton leaf discs were placed onto agar in 24-well microtiter plates and sprayed with aqueous test solutions prepared from 10′000 ppm DMSO stock solutions. After drying the leaf discs were infested with five L1 larvae. The samples were assessed for mortality, anti-feeding effect, and growth inhibition in comparison to untreated samples 3 days after infestation. Control of Spodoptera littoralis by a test sample is given when at least one of the categories mortality, anti-feedant effect, and growth inhibition is higher than the untreated sample.

[2] = tested on: Euschistus heros; experiment: Euschistus heros (Neotropical Brown Stink Bug) test on sprayed soybean leaves; assay type: in vivo; conditions: 120 h, application rate of 200 ppm, N2 nymphs, assessed 5 days after infestation in comparison to untreated samples, read-out: effect in at least one of the two categories (mortality or growth inhibition)
Protocol: Euschistus heros(Neotropical Brown Stink Bug)
Soybean leaves on agar in 24-well microtiter plates were sprayed with aqueous test solutions prepared from 10′000 ppm DMSO stock solutions. After drying the leaves were infested with N2 nymphs. The samples were assessed for mortality and growth inhibition in comparison to untreated samples 5 days after infestation.
The following compounds gave an effect of at least 80% in at least one of the two categories (mortality or growth inhibition) at an application rate of 200 ppm: A1, A2

With `COC(=O)OCN(C(=O)c1ccc(C2=NO[C@@](c3cc(Cl)c(F)c(Cl)c3)(C(F)(F)F)C2)cc1C)C1CN(S(=O)(=O)C(F)F)C1` [Compound A2, [[4-[(5S)-5-(3,5-dichloro-4-fluoro-phenyl)-5-(trifluoromethyl)-4H-isoxazol-3-yl]-2-methyl-benzoyl]-[1-(difluoromethylsulfonyl)azetidin-3-yl]amino]methyl methyl carbonate] the mortality at 200 ppm [1] was ≥ 80% and the percent effect (mortality or growth inhibition) at 200 ppm [2] was ≥ 80%.
